Laboratory results published in paper PMC6115767, “Soybean- and Lupin-Derived Peptides Inhibit DPP-IV Activity on In Situ Human Intestinal Caco-2 Cells and Ex Vivo Human Serum” (Nutrients, 2018).
No end group written: not given here.

Key:
[1] = cited from earlier work
[2] = target: T1, circulating DPP-IV in human serum (Homo sapiens, UniProt P27487); test: Ex vivo circulating DPP-IV activity assay in human serum (Gly-Pro-AMC); format: biochemical; conditions: 24 h at 37 °C, 50 µM Gly-Pro-AMC final, three experiments in triplicate
T1 construct: a soluble form of DPP-IV lacking the cytoplasmic and transmembrane domains is present in plasma and other body fluids; from tissue; host or cells: human serum from a healthy volunteer
Procedure: Human serum samples prepared from freshly collected venous blood from a healthy volunteer were aliquoted 40 µL/well in black 96-well plates and 10 µL of each inhibitor were added for 24 h at 37 °C. […] Subsequently, 50 µL of 100 µM Gly-Pro-AMC was added to each well to achieve a final substrate concentration of 50 µM.

[3] = target: T2, DPP-IV (in situ, human intestinal Caco-2 cells) (Homo sapiens, UniProt P27487)
Procedure: (§1) Caco-2 cells, obtained from INSERM (Paris, France), were routinely sub-cultured at 50% density [22] and maintained at 37 °C in a 90% air/10% CO2 atmosphere in DMEM containing 25 mM of glucose, 3.7 g/L of NaHCO3, 4 mM of stable L-glutamine, 1% nonessential amino acids, 100 U/L of penicillin, and 100 µg/L of streptomycin (complete medium), supplemented with 10% heat-inactivated fetal bovine serum (FBS; Hyclone Laboratories, Logan, UT, USA).
(§2) The medium was regularly changed three times a week. Caco-2 cells DPP-IV activity was assayed on days 2, 4, and 6 from seeding.

intestinal Caco-2 cells = conditions: cited from earlier work
Procedure: Considered all of these aspects, using live intestinal Caco-2 cells, experiments were performed to investigate in detail the ability of Lup1 and Soy1 to inhibit DPP-IV activity, in the presence of BB proteolytic activity.

[4] = target: T2, DPP-IV (in situ, human intestinal Caco-2 cells); test: In situ DPP-IV activity assay on 2-, 4- and 6-day Caco-2 cells (Gly-Pro-AMC); conditions: for reduction of in situ DPP-IV activity vs control: 2-day Caco-2 cells, 100 µM peptide, 1 h pre-incubation, 50 µM Gly-Pro-AMC, 10 min, three experiments in triplicate
Procedure: as §1, §2

T2 sequence (P27487 whole entry): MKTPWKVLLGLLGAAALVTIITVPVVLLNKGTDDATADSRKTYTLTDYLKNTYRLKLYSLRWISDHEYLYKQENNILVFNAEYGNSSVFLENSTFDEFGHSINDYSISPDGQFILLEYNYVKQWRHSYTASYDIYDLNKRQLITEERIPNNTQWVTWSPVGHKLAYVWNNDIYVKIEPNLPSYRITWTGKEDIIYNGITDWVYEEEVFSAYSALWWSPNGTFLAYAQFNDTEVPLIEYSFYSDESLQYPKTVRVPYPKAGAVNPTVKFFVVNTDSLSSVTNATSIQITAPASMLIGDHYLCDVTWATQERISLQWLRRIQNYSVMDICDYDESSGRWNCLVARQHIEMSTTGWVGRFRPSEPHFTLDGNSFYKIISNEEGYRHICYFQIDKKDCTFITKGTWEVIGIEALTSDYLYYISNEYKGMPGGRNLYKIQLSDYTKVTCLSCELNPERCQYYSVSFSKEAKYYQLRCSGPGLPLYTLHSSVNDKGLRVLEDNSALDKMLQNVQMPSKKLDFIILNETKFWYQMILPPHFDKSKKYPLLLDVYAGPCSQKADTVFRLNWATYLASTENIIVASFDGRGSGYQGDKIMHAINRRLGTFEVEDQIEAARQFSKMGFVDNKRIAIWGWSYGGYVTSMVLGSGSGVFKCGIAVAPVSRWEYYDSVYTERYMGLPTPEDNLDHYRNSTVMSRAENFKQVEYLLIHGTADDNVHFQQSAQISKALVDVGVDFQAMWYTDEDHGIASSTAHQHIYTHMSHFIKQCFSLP
T1 sequence (P27487 39-766 limits assumed): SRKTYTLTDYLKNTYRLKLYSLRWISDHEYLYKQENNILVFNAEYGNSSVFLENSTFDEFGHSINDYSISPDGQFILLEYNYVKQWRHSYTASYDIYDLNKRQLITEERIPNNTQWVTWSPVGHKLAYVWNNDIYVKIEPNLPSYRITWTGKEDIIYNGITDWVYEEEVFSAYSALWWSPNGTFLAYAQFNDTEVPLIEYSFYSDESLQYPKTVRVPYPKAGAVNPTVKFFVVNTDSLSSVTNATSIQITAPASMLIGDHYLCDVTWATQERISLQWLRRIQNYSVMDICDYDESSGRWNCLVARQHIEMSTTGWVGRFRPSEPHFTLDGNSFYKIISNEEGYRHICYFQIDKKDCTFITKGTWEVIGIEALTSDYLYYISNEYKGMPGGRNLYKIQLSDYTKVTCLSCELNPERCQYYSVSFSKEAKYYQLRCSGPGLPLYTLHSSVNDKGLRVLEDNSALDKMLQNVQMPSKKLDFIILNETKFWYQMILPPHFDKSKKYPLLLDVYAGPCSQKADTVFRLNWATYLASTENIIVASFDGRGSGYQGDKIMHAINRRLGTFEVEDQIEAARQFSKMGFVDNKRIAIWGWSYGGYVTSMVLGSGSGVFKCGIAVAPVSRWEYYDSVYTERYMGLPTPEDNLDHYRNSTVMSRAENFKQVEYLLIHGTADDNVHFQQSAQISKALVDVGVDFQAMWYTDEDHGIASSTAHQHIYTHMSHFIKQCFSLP

Molecule | absorption in vivo (in words) [1] | decrease of circulating DPP-IV activity vs control ([2]; 100 µM peptide) [%] | decrease of circulating DPP-IV activity vs control ([2]; 300 µM peptide) [%] | in situ IC50 compared with in vitro IC50 [3] [fold] | breakdown fragments formed (intestinal Caco-2 cells; Caco-2 cells, already after 2 h of incubation) | susceptibility to intestinal endopeptidases (in words) (intestinal Caco-2 cells; Caco-2 cells) | IC50 [4] [µM] | reduction of in situ DPP-IV activity vs control [4] [%] | stability to apical proteases (in words) (intestinal Caco-2 cells; differentiated Caco-2 cells, apical proteases, after 4 h of incubation) | absorption by Caco-2 cells (in words) (intestinal Caco-2 cells; differentiated intestinal Caco-2 cells) | in situ IC50 compared with in vitro IC50 (in words) ([4]; 2-day Caco-2 IC50 vs in vitro purified enzyme IC50)
N[C@@H](CC(=O)N1CCn2c(nnc2C(F)(F)F)C1)Cc1cc(F)c(F)cc1F [sitagliptin, Sitagliptin] | rapidly absorbed |  |  |  |  |  |  |  |  |  | 
IAVPTGVA [Soy1] |  | 27.7 | 35.0 | 2 | IAVPT and AVPTGVA | susceptible to the action of intestinal endopeptidases | 223 | 50 |  |  | 
LTFPGSAED [Lup1] |  | 18.1 | 24.7 |  |  |  | 207 | 50 | not degraded | absorbed intact | in agreement with that obtained with the in vitro assay
